According to patent US20150111864A1, “CRYSTALLINE FORM OF A BETA-LACTAMASE INHIBITOR” (Cubist Pharmaceuticals, Inc., priority 2013, published 2015):
“Also recorded” adds a separate entry of the source. Where a name gives a salt, the structure may show the parent alone.

What was measured:
Format in all cases: physicochemical
[1] = Static stability / storage of solid forms, checked by XRPD
Protocol: The samples were analysed by XRPD and, where appropriate, by DSC, TGA, VT-XRPD and ^1H NMR. Static stability at 25° C./96% RH and 40° C./75% RH was also investigated.
This material was analysed by XRPD TGA, GVS, and mDSC. Static stability experiments were carried out under ambient conditions and also at 25° C./96% RH and 40° C./75% RH. Finally this material was used as input material for the polymorphism screen (see Table 6).

[2] = Gravimetric Vapour Sorption (GVS)
Protocol: Sorption isotherms were obtained using a SMS DVS Intrinsic moisture sorption analyser, controlled by DVS Intrinsic Control software v1.0.1.2 (or v 1.0.1.3). The sample temperature was maintained at 25° C. by the instrument controls. The humidity was controlled by mixing streams of dry and wet nitrogen, with a total flow rate of 200 ml/min The relative humidity was measured by a calibrated Rotronic probe (dynamic range of 1.0-100% RH), located near the sample. The weight change, (mass relaxation) of the sample as a function of % RH was constantly monitored by the microbalance (accuracy±0.005 mg). Typically 5-20 mg of sample was placed in a tared mesh stainless steel basket under ambient conditions. The sample was loaded and unloaded at 40% RH and 25° C. (typical room conditions). A moisture sorption isotherm was performed as outlined below (2 scans giving 1 complete cycle or 4 scans giving 2 complete cycles). The standard isotherm was performed at 25° C. at 10% RH intervals over a 0-90% RH range. Data analysis was undertaken in Microsoft Excel using DVS Analysis Suite v6.2 (or 6.1 or 6.0). Table 2 details the method parameters for SMS DVS intrinsic experiments.
The sample was recovered after completion of the isotherm and re-analysed by XRPD.

Aqueous solubility = experiment: Aqueous solubility
XRPD after ball milling = experiment: XRPD after ball milling
[3] = Static stability / storage of solid forms, checked by XRPD; remark: listed apart in the source
[4] = Drying of solid forms, form checked by XRPD; settings: for Filtration and air drying for 30 min: air drying 30 min

Structure (SMILES): NCCCc1nnc([C@@H]2CC[C@@H]3CN2C(=O)N3OS(=O)(=O)O)o1 [Amorphous Solid, (2S,5R)-2-(5-(3-aminopropyl)-1,3,4-oxadiazol-2-yl)-7-oxo-1,6-diazabicyclo[3.2.1]octan-6-yl hydrogen sulfate]
- Static Stability - 25° C./96% RH: time to conversion to Form 5 ([1]; 25° C./96% RH): Conversion to Form 5 within 15 minutes
- Static Stability - 40° C./75% RH: time to conversion to Form 5 ([1]; 40° C./75% RH): Conversion to Form 5 within 15 minutes
- Static Stability - ambient ([1]; ambient conditions, XRPD): Form 5 peaks observed after 36 days (although
- GVS (water uptake, in words) ([2]; 25° C., resulting solid was Form 5 by XRPD): Rapid uptake of water from 40-60%

Structure (SMILES): NCCCc1nnc([C@@H]2CC[C@@H]3CN2C(=O)N3OS(=O)(=O)O)o1 [Form 5, (2S,5R)-2-(5-(3-aminopropyl)-1,3,4-oxadiazol-2-yl)-7-oxo-1,6-diazabicyclo[3.2.1]octan-6-yl hydrogen sulfate]
- Stability relative to the amorphous solid form and other crystalline forms [1]: more stable than other crystalline forms; also recorded: improved stability
- Change of XRPD pattern over time (FIG. 2) ([1]; 25° C. and 40% relative humidity, t=0 and t=2 days): little to no change
- Storage at 25° C./96% RH for 1 week ([1]; 25° C./96% RH, 1 week): No change in form or crystallinity
- Storage at 40° C./75% RH for 1 week ([1]; 40° C./75% RH, 1 week): No change in form or crystallinity
- Relative stability of crystalline forms at ambient conditions ([1]; ambient conditions (25° C. and 40% RH)): most stable crystalline form
- XRPD post GVS ([2]; after GVS isotherm): Form 5. No change in crystallinity
- GVS Mass change ([2]; from 0-90% RH, 25° C.): Mass change of 9.73% from 0-90% RH
- Aqueous solubility (24 hrs at 25°): solid form of residue (Aqueous solubility): Residue was Form 5
- Aqueous solubility (24 hrs at 25°) (Aqueous solubility; pH 4.85): 13.1 mg/ml (pH 4.85).
- XRPD after ball milling (20 min) (XRPD after ball milling): No change in form but loss
- Storage in vacuum oven at 25° C. ([3]; 25° C., after 5 days): No change in form or crystallinity
- Storage in vacuum oven at 50° C. ([3]; 50° C., after 24 h): Sample almost completely amorphous

Structure (SMILES): NCCCc1nnc([C@@H]2CC[C@@H]3CN2C(=O)N3OS(=O)(=O)O)o1 [Form 6, (2S,5R)-2-(5-(3-aminopropyl)-1,3,4-oxadiazol-2-yl)-7-oxo-1,6-diazabicyclo[3.2.1]octan-6-yl hydrogen sulfate]
- Storage at 25° C./96% RH for 24 h ([1]; 25° C./96% RH): Conversion to Form 5
- Storage at 40° C./75% RH for 24 h ([1]; 40° C./75% RH): Conversion to Form 5
- Filtration and air drying for 30 min [4]: No change in form

Structure (SMILES): NCCCc1nnc([C@@H]2CC[C@@H]3CN2C(=O)N3OS(=O)(=O)O)o1 [Form 7, (2S,5R)-2-(5-(3-aminopropyl)-1,3,4-oxadiazol-2-yl)-7-oxo-1,6-diazabicyclo[3.2.1]octan-6-yl hydrogen sulfate]
- Storage at 25° C./96% RH for 24 h ([1]; 25° C./96% RH): Conversion to Form 5
- Storage at 40° C./75% RH for 24 h ([1]; 40° C./75% RH): Conversion to Form 5
- Storage at ambient conditions for 24 h [1]: No change in form
- Filtration and air drying for 30 min [4]: No change in form

Structure (SMILES): NCCCc1nnc([C@@H]2CC[C@@H]3CN2C(=O)N3OS(=O)(=O)O)o1 [Form 9, (2S,5R)-2-(5-(3-aminopropyl)-1,3,4-oxadiazol-2-yl)-7-oxo-1,6-diazabicyclo[3.2.1]octan-6-yl hydrogen sulfate]
- Storage at 25° C./96% RH for 24 h ([1]; 25° C./96% RH): Conversion to Form 5
- Storage at 40° C./75% RH for 24 h ([1]; 40° C./75% RH): Conversion to Form 5
- Storage at ambient conditions for 24 h [1]: No change in form
- Drying in at 5 mmHg/25° C. overnight ([4]; 5 mmHg, 25° C., overnight): No change in form
